This note sets out measurements from ChEMBL document CHEMBL1201862, “PubChem BioAssay data set” (2004).

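Five concentrations, 48 hours, 96-well plates. GI50: concentration for 50% inhibition of growth.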 Calls of active or inactive are those of the source. No stated cut-off is given here; in the data, active = GI50 up to about 1.1 µM and inactive = higher.

Some test systems named below: K562; NCI-H226; ACHN; UACC-62; A498; EKVX; HT-29; 786-0; UO-31; NCI-H460; OVCAR-3; SK-OV-3; MOLT-4; UACC-257; PC-3; HOP-62; OVCAR-5; U-251; COLO 205; Malme-3M.
Holding throughout (assay): NCI-60 cell line screen, 48 h

For the molecule `CCCC(C(=O)Nc1cccc2nc[nH]c12)C(=O)OCC` (configuration not stated), the GI50 in the assay with K562, in the assay on NCI-H226, in the assay with ACHN, in the assay with UACC-62, with A498 and with EKVX was > 100 µM (inactive) throughout. Further, the GI50 with HT-29 is > 100 µM (inactive); with 786-0, > 100 µM (inactive); in the assay on UO-31, > 100 µM (inactive); with NCI-H460, > 100 µM (inactive); in the assay on OVCAR-3, 67.8 µM (inactive); in the assay with SK-OV-3, > 100 µM (inactive). The GI50 in the assay with MOLT-4, in the assay on UACC-257, with PC-3, in the assay with HOP-62, in the assay on OVCAR-5 and in the assay on U-251 was > 100 µM (inactive) throughout.
As for `CCc1nc(N)c2nc(-c3ccc(C#N)cc3)oc2n1`, the GI50 in the assay on K562, with NCI-H226, with ACHN, in the assay with UACC-62, in the assay with A498 and in the assay on EKVX was > 100 µM (inactive) each time. Besides, the GI50 in the assay with HT-29, in the assay with 786-0, in the assay on UO-31, in the assay with NCI-H460, with OVCAR-3 and in the assay on MOLT-4 was > 100 µM (inactive) throughout. The GI50 in the assay on COLO 205, in the assay with UACC-257, with PC-3, in the assay on HOP-62 and in the assay with OVCAR-5 was > 100 µM (inactive) throughout.
`c1ccc2c(c1)[nH]c1c2cc[n+]2cc3c(cc12)CCCC3`: the GI50 in the assay on K562 was 1.6 µM (inactive); in the assay with NCI-H226, 2.03 µM (inactive); in the assay with ACHN, 3.75 µM (inactive); in the assay on A498 it was 5.38 µM (inactive); in the assay with EKVX, 4.89 µM (inactive); in the assay with HT-29, 3.28 µM (inactive). In addition, the GI50 in the assay with 786-0 is 2.28 µM (inactive); in the assay on UO-31, 16.3 µM (inactive); in the assay on NCI-H460, 1.34 µM (inactive); with OVCAR-3, 1.16 µM (inactive); in the assay with SK-OV-3, 3.87 µM (inactive); in the assay on MOLT-4, 1.18 µM (inactive). Further, the GI50 with COLO 205 is 0.38 µM (active); with UACC-257 it was 4.09 µM (inactive); in the assay on PC-3 it was 2.83 µM (inactive); with HOP-62, 1.66 µM (inactive); in the assay on OVCAR-5, 2.45 µM (inactive); in the assay on U-251, 2.51 µM (inactive).
As for `COc1ccc2c(c1)CC[C@@H]1[C@@H]2CC[C@]2(C)C(=O)/C(=C/c3ccc(O)c(OC)c3)C[C@@H]12`, the GI50 was 50.5 µM (inactive) with K562; 44.2 µM (inactive) in the assay on NCI-H226; > 100 µM (inactive) in the assay with ACHN; 68.5 µM (inactive) in the assay with UACC-62; > 100 µM (inactive) in the assay with A498; 45.8 µM (inactive) in the assay with EKVX. In addition, the GI50 in the assay on HT-29 was 51.8 µM (inactive); with UO-31 it was 71 µM (inactive); with NCI-H460, 39.4 µM (inactive); in the assay with OVCAR-3, > 100 µM (inactive); with SK-OV-3, > 100 µM (inactive); in the assay on MOLT-4 it was 28.2 µM (inactive). Besides, the GI50 in the assay on COLO 205 is > 100 µM (inactive); in the assay on UACC-257, 57.8 µM (inactive); in the assay with PC-3, 39.1 µM (inactive); with HOP-62 it was 62.7 µM (inactive); in the assay on OVCAR-5, 76 µM (inactive); in the assay on U-251, 51.3 µM (inactive).
Turning to `O=C1c2cc3c(cc2CC12Cc1ccc4c(c1C2=O)CCC4)CCC3` (configuration not stated), the GI50 was > 100 µM (inactive) with K562; > 100 µM (inactive) in the assay with ACHN; > 100 µM (inactive) with A498; > 100 µM (inactive) in the assay with EKVX; 41.7 µM (inactive) in the assay on Malme-3M; > 100 µM (inactive) with HT-29. Besides, the GI50 was 65.6 µM (inactive) in the assay with 786-0; > 100 µM (inactive) in the assay on UO-31; > 100 µM (inactive) in the assay with NCI-H460; 75.5 µM (inactive) in the assay on OVCAR-3; 43.8 µM (inactive) with SK-OV-3; > 100 µM (inactive) in the assay on MOLT-4. Moreover, the GI50 is > 100 µM (inactive) in the assay on UACC-257; > 100 µM (inactive) with PC-3; 74 µM (inactive) in the assay on HOP-62; > 100 µM (inactive) in the assay with OVCAR-5; 33.6 µM (inactive) in the assay with U-251.
For `COC(=O)C1=C(C(=O)OC)SC2(S1)C1=C(CCC1)SC(C(=O)OC)=C2C(=O)OC`, the GI50 is 3.09 µM (inactive) in the assay on K562; 12.3 µM (inactive) with ACHN; 15 µM (inactive) in the assay with UACC-62; 9.12 µM (inactive) with A498; 14.9 µM (inactive) with EKVX; 17.9 µM (inactive) in the assay on Malme-3M. The GI50 with HT-29 is 4.58 µM (inactive); with UO-31 it was 10.8 µM (inactive); in the assay with NCI-H460 it was 5.37 µM (inactive); with OVCAR-3, 12.2 µM (inactive); with SK-OV-3, 16.9 µM (inactive); with MOLT-4 it was 2.29 µM (inactive). Moreover, the GI50 with COLO 205 was 13.8 µM (inactive); in the assay with UACC-257 it was 15.7 µM (inactive); in the assay with PC-3, 11.2 µM (inactive); with HOP-62, 12.7 µM (inactive); with OVCAR-5 it was 19.4 µM (inactive); with U-251, 15.6 µM (inactive).
`CC1(C)OC2OC(C(=O)c3ccccc3)C3OC(C)(C)OC3C2O1` (configuration not stated): the GI50 with K562, in the assay with NCI-H226, in the assay on ACHN, with UACC-62, in the assay with A498 and in the assay with EKVX was > 100 µM (inactive) each time. The GI50 in the assay on 786-0, with UO-31, with NCI-H460, with OVCAR-3, in the assay with SK-OV-3 and with MOLT-4 was > 100 µM (inactive) each time. Also, the GI50 in the assay on COLO 205, in the assay on UACC-257, in the assay with PC-3, in the assay with HOP-62, in the assay with OVCAR-5 and in the assay on U-251 was > 100 µM (inactive) throughout.
Turning to `COC(=O)CNCC1OC2OC(C)(C)OC2C1N=[N+]=[N-]` (configuration not stated), the GI50 in the assay with K562, with NCI-H226, in the assay with ACHN, in the assay on UACC-62, in the assay on A498 and in the assay with EKVX was > 100 µM (inactive) each time. For the same molecule, the GI50 with HT-29, in the assay with 786-0, in the assay with UO-31, with NCI-H460, in the assay with OVCAR-3 and with SK-OV-3 was > 100 µM (inactive) in each case. For the same molecule, the GI50 is > 100 µM (inactive) in the assay with MOLT-4; > 10 µM (inactive) in the assay on COLO 205; > 100 µM (inactive) in the assay with UACC-257; > 100 µM (inactive) in the assay with PC-3; > 100 µM (inactive) in the assay on HOP-62; > 100 µM (inactive) in the assay with OVCAR-5. Further, the GI50 with U-251 was > 100 µM (inactive).
Consider `O=C(/C=C/c1ccccc1O)/C=C/c1ccccc1O`, for which the GI50 with K562 was 0.611 µM (active); in the assay with ACHN, 1.8 µM (inactive); in the assay on UACC-62 it was 1.67 µM (inactive); in the assay on A498, 1.82 µM (inactive); in the assay on Malme-3M it was 2.11 µM (inactive); in the assay with HT-29 it was 1.92 µM (inactive). In addition, the GI50 with 786-0 is 1.69 µM (inactive); in the assay with UO-31, 1.83 µM (inactive); in the assay with NCI-H460, 1.35 µM (inactive); in the assay with OVCAR-3, 0.352 µM (active); in the assay with SK-OV-3 it was 1.86 µM (inactive); in the assay on MOLT-4, 1.26 µM (inactive). Further, the GI50 in the assay with COLO 205 was 1.73 µM (inactive); with UACC-257, 4.43 µM (inactive); in the assay with PC-3, 1.74 µM (inactive); in the assay with HOP-62, 2.26 µM (inactive); in the assay on OVCAR-5 it was 1.49 µM (inactive); with U-251, 0.482 µM (active).
On to `COC1OC(C(C)O)C2OC(C)(C)OC12` (configuration not stated), for which the GI50 in the assay on K562, in the assay on NCI-H226, in the assay on ACHN, in the assay on UACC-62, in the assay on A498 and in the assay on EKVX was > 100 µM (inactive) each time. Moreover, the GI50 in the assay with HT-29, in the assay with 786-0, with UO-31, in the assay on NCI-H460, with OVCAR-3 and in the assay on SK-OV-3 was > 100 µM (inactive) throughout. For the same molecule, the GI50 with MOLT-4, with COLO 205, in the assay on UACC-257, in the assay with PC-3, with HOP-62 and in the assay on OVCAR-5 was > 100 µM (inactive) in each case. In the assay on U-251, the GI50 is > 100 µM (inactive).
Consider `CCOC(=O)c1sc2nc(SC)nc3c2c1NCN3C`, for which the GI50 with NCI-H226 was 31.7 µM (inactive); in the assay on ACHN, 18.7 µM (inactive); in the assay with UACC-62, 42.7 µM (inactive); in the assay with A498, 15.2 µM (inactive); in the assay with Malme-3M, 24.8 µM (inactive); in the assay on HT-29, > 100 µM (inactive). Also, the GI50 was 15.2 µM (inactive) with 786-0; 11.9 µM (inactive) with UO-31; 32.1 µM (inactive) in the assay on NCI-H460; > 100 µM (inactive) in the assay with OVCAR-3; 16.1 µM (inactive) in the assay with SK-OV-3; > 100 µM (inactive) with COLO 205. In addition, the GI50 in the assay on UACC-257 was > 100 µM (inactive); in the assay with PC-3, > 100 µM (inactive); in the assay with HOP-62, 15.1 µM (inactive); with OVCAR-5, 36.1 µM (inactive); in the assay on U-251, 20.6 µM (inactive).
